Assay results from the NIST ThermoML archive (doi:10.1021/acs.jced.8b00132).
Where “and” joins values, the source holds several entries; their conditions need not be identical. Equal values may be shown once. ± gives the expanded uncertainty stated by the source.

O=C(C(F)(F)C(F)(F)F)C(F)(C(F)(F)F)C(F)(F)F [dodecafluoro-2-methylpentan-3-one]
Conditions | thermal conductivity
272.59 K, 5172 kPa, Liquid, transient hot wire | 0.06413 ± 0.0013 W/m/K
272.59 K, 11144 kPa, Liquid, transient hot wire | 0.06607 ± 0.0014 W/m/K
272.63 K, 49567 kPa, Liquid, transient hot wire | 0.07698 ± 0.0016 W/m/K
272.63 K, 49576 kPa, Liquid, transient hot wire | 0.07734 ± 0.0016 W/m/K
272.66 K, 412 kPa, Liquid, transient hot wire | 0.06211 ± 0.0013 W/m/K
272.66 K, 419 kPa, Liquid, transient hot wire | 0.06231 ± 0.0013 W/m/K
272.66 K, 59545 kPa, Liquid, transient hot wire | 0.08002 ± 0.0016 W/m/K
272.67 K, 59542 kPa, Liquid, transient hot wire | 0.0797 ± 0.0016 W/m/K
272.71 K, 68218 kPa, Liquid, transient hot wire | 0.08167 ± 0.0017 W/m/K
272.71 K, 68236 kPa, Liquid, transient hot wire | 0.08151 ± 0.0017 W/m/K
273.05 K, 32241 kPa, Liquid, transient hot wire | 0.07208 ± 0.0015 W/m/K
273.05 K, 32245 kPa, Liquid, transient hot wire | 0.0724 ± 0.0015 W/m/K
273.05 K, 40384 kPa, Liquid, transient hot wire | 0.07454 ± 0.0015 W/m/K
273.05 K, 40385 kPa, Liquid, transient hot wire | 0.07459 ± 0.0015 W/m/K
273.05 K, 46114 kPa, Liquid, transient hot wire | 0.07568 ± 0.0016 W/m/K
273.06 K, 24365 kPa, Liquid, transient hot wire | 0.07006 ± 0.0014 W/m/K
273.06 K, 24371 kPa, Liquid, transient hot wire | 0.0701 ± 0.0014 W/m/K
273.07 K, 5155 kPa, Liquid, transient hot wire | 0.06386 ± 0.0013 W/m/K
273.07 K, 46114 kPa, Liquid, transient hot wire | 0.07563 ± 0.0015 W/m/K
273.08 K, 5150 kPa, Liquid, transient hot wire | 0.06384 ± 0.0013 W/m/K
273.1 K, 49569 kPa, Liquid, transient hot wire | 0.07538 ± 0.0015 W/m/K
273.1 K, 49574 kPa, Liquid, transient hot wire | 0.07648 ± 0.0016 W/m/K
273.11 K, 59541 kPa, Liquid, transient hot wire | 0.07959 ± 0.0016 W/m/K
273.12 K, 59533 kPa, Liquid, transient hot wire | 0.07966 ± 0.0016 W/m/K
273.14 K, 68200 kPa, Liquid, transient hot wire | 0.0807 ± 0.0017 W/m/K
273.15 K, 404 kPa, Liquid, transient hot wire | 0.06203 ± 0.0013 W/m/K
273.15 K, 68218 kPa, Liquid, transient hot wire | 0.08063 ± 0.0017 W/m/K
273.16 K, 411 kPa, Liquid, transient hot wire | 0.06212 ± 0.0013 W/m/K
273.17 K, 17550 kPa, Liquid, transient hot wire | 0.06792 ± 0.0014 W/m/K
273.17 K, 17567 kPa, Liquid, transient hot wire | 0.06791 ± 0.0014 W/m/K
273.18 K, 11149 kPa, Liquid, transient hot wire | 0.066 ± 0.0014 W/m/K
273.18 K, 11163 kPa, Liquid, transient hot wire | 0.06608 ± 0.0014 W/m/K
273.61 K, 5151 kPa, Liquid, transient hot wire | 0.06408 ± 0.0013 W/m/K
273.61 K, 5162 kPa, Liquid, transient hot wire | 0.06401 ± 0.0013 W/m/K
273.61 K, 59517 kPa, Liquid, transient hot wire | 0.0783 ± 0.0016 W/m/K
273.62 K, 49564 kPa, Liquid, transient hot wire | 0.07642 ± 0.0016 W/m/K
273.62 K, 49566 kPa, Liquid, transient hot wire | 0.07674 ± 0.0016 W/m/K
273.62 K, 59531 kPa, Liquid, transient hot wire | 0.07779 ± 0.0016 W/m/K
273.65 K, 40387 kPa, Liquid, transient hot wire | 0.07442 ± 0.0015 W/m/K
273.65 K, 40395 kPa, Liquid, transient hot wire | 0.07429 ± 0.0015 W/m/K
273.65 K, 46116 kPa, Liquid, transient hot wire | 0.0758 ± 0.0016 W/m/K
273.65 K, 68183 kPa, Liquid, transient hot wire | 0.08044 ± 0.0016 W/m/K
273.65 K, 68193 kPa, Liquid, transient hot wire | 0.08038 ± 0.0016 W/m/K
273.66 K, 46113 kPa, Liquid, transient hot wire | 0.07572 ± 0.0016 W/m/K
273.67 K, 32245 kPa, Liquid, transient hot wire | 0.07209 ± 0.0015 W/m/K
273.67 K, 32247 kPa, Liquid, transient hot wire | 0.07216 ± 0.0015 W/m/K
273.7 K, 424 kPa, Liquid, transient hot wire | 0.0621 ± 0.0013 W/m/K
273.7 K, 24366 kPa, Liquid, transient hot wire | 0.07016 ± 0.0014 W/m/K
273.7 K, 24370 kPa, Liquid, transient hot wire | 0.07021 ± 0.0014 W/m/K
273.71 K, 432 kPa, Liquid, transient hot wire | 0.06209 ± 0.0013 W/m/K
273.81 K, 17553 kPa, Liquid, transient hot wire | 0.06799 ± 0.0014 W/m/K
273.82 K, 17545 kPa, Liquid, transient hot wire | 0.06795 ± 0.0014 W/m/K
273.85 K, 11147 kPa, Liquid, transient hot wire | 0.06585 ± 0.0014 W/m/K
273.86 K, 11155 kPa, Liquid, transient hot wire | 0.06592 ± 0.0014 W/m/K
274.19 K, 59501 kPa, Liquid, transient hot wire | 0.07896 ± 0.0016 W/m/K
274.2 K, 59504 kPa, Liquid, transient hot wire | 0.07856 ± 0.0016 W/m/K
274.21 K, 49565 kPa, Liquid, transient hot wire | 0.07644 ± 0.0016 W/m/K
274.21 K, 49570 kPa, Liquid, transient hot wire | 0.07662 ± 0.0016 W/m/K
274.22 K, 68163 kPa, Liquid, transient hot wire | 0.08055 ± 0.0016 W/m/K
274.22 K, 68173 kPa, Liquid, transient hot wire | 0.08038 ± 0.0016 W/m/K
274.29 K, 46110 kPa, Liquid, transient hot wire | 0.07571 ± 0.0016 W/m/K
274.3 K, 46107 kPa, Liquid, transient hot wire | 0.07575 ± 0.0016 W/m/K
274.31 K, 40378 kPa, Liquid, transient hot wire | 0.07418 ± 0.0015 W/m/K
274.31 K, 40391 kPa, Liquid, transient hot wire | 0.07426 ± 0.0015 W/m/K
274.35 K, 32242 kPa, Liquid, transient hot wire | 0.0723 ± 0.0015 W/m/K
274.35 K, 32249 kPa, Liquid, transient hot wire | 0.0721 ± 0.0015 W/m/K
274.39 K, 24361 kPa, Liquid, transient hot wire | 0.07 ± 0.0014 W/m/K
274.4 K, 24354 kPa, Liquid, transient hot wire | 0.06999 ± 0.0014 W/m/K
274.53 K, 17544 kPa, Liquid, transient hot wire | 0.068 ± 0.0014 W/m/K
274.54 K, 17533 kPa, Liquid, transient hot wire | 0.06799 ± 0.0014 W/m/K
274.59 K, 11155 kPa, Liquid, transient hot wire | 0.06582 ± 0.0014 W/m/K
274.6 K, 11134 kPa, Liquid, transient hot wire | 0.06585 ± 0.0014 W/m/K
274.82 K, 59491 kPa, Liquid, transient hot wire | 0.07869 ± 0.0016 W/m/K
274.82 K, 59496 kPa, Liquid, transient hot wire | 0.07855 ± 0.0016 W/m/K
274.83 K, 68150 kPa, Liquid, transient hot wire | 0.0803 ± 0.0016 W/m/K
274.83 K, 68153 kPa, Liquid, transient hot wire | 0.08033 ± 0.0016 W/m/K
274.86 K, 49566 kPa, Liquid, transient hot wire | 0.0765 ± 0.0016 W/m/K
274.86 K, 49571 kPa, Liquid, transient hot wire | 0.07653 ± 0.0016 W/m/K
300.59 K, 40 kPa, Gas, hot wire | 0.01173 ± 0.00055 W/m/K
300.6 K, 35 kPa, Gas, hot wire | 0.01177 ± 0.00059 W/m/K
300.6 K, 40 kPa, Gas, hot wire | 0.01173 ± 0.00055 W/m/K
300.61 K, 35 kPa, Gas, hot wire | 0.01163 ± 0.00066 W/m/K
300.62 K, 27 kPa, Gas, hot wire | 0.01161 ± 0.00055 W/m/K and 0.01166 ± 0.00055 W/m/K
300.8 K, 40 kPa, Gas, hot wire | 0.01173 ± 0.00055 W/m/K and 0.01174 ± 0.00055 W/m/K
